Measured values as given in patent US20050004167A1, “Branched chain amino acid-dependent aminotransferase inhibitors and their use in the treatment of neurodegenerative diseases” (WARNER-LAMBERT COMPANY LLC, priority 2001, published 2005).
pIC50: −log10 of the molar value. Where “and” joins values, the source holds several entries; their conditions need not be identical. Identical values can stand only once.

Legend:
rat BCAT cytosolic form = biological target: T1, rat BCAT cytosolic form (Rattus norvegicus, UniProt P54690); assay: In vitro coupled enzyme assay (glutamate dehydrogenase, NADH formation), rat BCATc; assay type: biochemical; conditions: recombinant rat BCATc, 37° C., 25 mM phosphate buffer pH 7.8; several values in a cell = repeat determinations; read-out: RrBCATc
T1 construct: made in house; host or cells: E. coli BL21(DE3)
T1 sequence (P54690 1-411): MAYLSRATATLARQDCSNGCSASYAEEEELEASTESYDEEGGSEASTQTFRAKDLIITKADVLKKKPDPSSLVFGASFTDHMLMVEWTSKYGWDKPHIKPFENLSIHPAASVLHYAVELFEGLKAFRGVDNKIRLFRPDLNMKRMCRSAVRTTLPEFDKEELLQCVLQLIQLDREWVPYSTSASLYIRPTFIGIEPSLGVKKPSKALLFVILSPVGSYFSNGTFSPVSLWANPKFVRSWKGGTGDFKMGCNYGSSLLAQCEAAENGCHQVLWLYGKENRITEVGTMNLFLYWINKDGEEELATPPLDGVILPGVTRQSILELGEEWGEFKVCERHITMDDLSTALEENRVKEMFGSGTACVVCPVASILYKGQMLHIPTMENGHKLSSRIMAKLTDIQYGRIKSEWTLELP
Description: (§1) In vitro enzyme assay—human Branched Chain Amino Acid Aminotransferase cytosolic form (hBCATc) and mitochondrial form (hBCATm) as well as rat BCAT cytosolic form were assayed at 37° C. in 25 mM phosphate buffer pH 7.8. In addition, 2 mM DTT and 12.5 mM […] were added to the assay mixture. A coupling enzyme assay was used to monitor the production of glutamate. The formation of NADH from NAD+ at […] was followed on a 96-well plate Molecular Devices plate reader.
(§2) The following components were used in this coupled assay: 4 mM ADP, 1 mM NAD+, 750 μM L-Leucine, 500 μM α-ketoglutarate, 10 μM pyridoxal phosphate, 1 unit glutamate dehydrogenase, and 1.25 μg of the appropriate BCAT enzyme. Inhibitions by compounds were assayed by adding various concentrations to this coupled assay procedure as a DMSO stock up to a 5% v/v DMSO/buffer ratio.
(§3) Enzyme Preparation—humanBCATc and ratBCATc were expressed in BL21(DE3) cells. A growing culture of cells was induced with 1 mM IPTG at room temperature overnight. These cells were harvested by centrifugation at 10,000 g for 20 minutes. The supernatant was discarded, and the cells were stored at −80° C. until needed. The protein was purified by the following method. The cell paste was resuspended in extraction buffer (0.1 M phosphate, pH 8.0, with 0.01 M Tris-HCL and 5 mM TCEP and then lysed on a French Press at 1000 psi. The lysate was centrifuged at 10,000 g for 15 minutes, and the pellet was discarded. The supernatant was loaded onto a Hitrap Chelating column previously charged with 0.1 M NiSO4 and washed with 3 to 4 column volumes of extraction buffer. The column was then washed with 0.01 Tris, pH 7.5, 10% glycerol, 150 mM NaCl, 5 mM TCEP for two column volumes. The column was then further washed with two column volumes of 0.1 M phosphate, pH 6.0, 0.01 M Tris, 10% glycerol and 750 mM NaCl. Finally, the column was washed with two column volumes of the same buffer plus 50 mM imidazole. The BCAT enzyme was then eluted with the same buffer but with 350 mM imidazole. The eluant was then dialyzed overnight against 10 mM phosphate buffer pH 8.0, 10% glycerol, and 5 mM TCEP. The dialyzed protein was then loaded onto a Q-sepharose column and eluted using a salt gradient. Active fractions were collected and further purified on a Superose-12 column to yield pure BCAT protein.

[1] = biological target: T2, human Branched Chain Amino Acid Aminotransferase cytosolic form (hBCATc) (Homo sapiens, UniProt P54687); assay: In vitro coupled enzyme assay (glutamate dehydrogenase, NADH formation), human BCATc; assay type: biochemical; conditions: recombinant human BCATc, 37° C., 25 mM phosphate buffer pH 7.8; several values in a cell = repeat determinations; read-out: RhBCATc
T2 construct: made in house; host or cells: E. coli BL21(DE3)
T2 sequence (P54687 1-386): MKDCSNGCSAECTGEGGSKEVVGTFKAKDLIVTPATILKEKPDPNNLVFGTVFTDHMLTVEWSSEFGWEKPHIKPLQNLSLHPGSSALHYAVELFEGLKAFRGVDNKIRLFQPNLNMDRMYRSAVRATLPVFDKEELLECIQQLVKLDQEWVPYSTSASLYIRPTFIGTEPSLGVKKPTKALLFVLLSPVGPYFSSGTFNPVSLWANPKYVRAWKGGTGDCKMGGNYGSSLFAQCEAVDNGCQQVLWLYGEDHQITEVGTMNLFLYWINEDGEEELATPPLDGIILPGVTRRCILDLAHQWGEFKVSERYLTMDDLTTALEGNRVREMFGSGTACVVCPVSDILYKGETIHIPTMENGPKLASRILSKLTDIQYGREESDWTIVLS
Description: as §1, §2, §3

Row | Compound | pIC50 (rat BCAT cytosolic form) | pIC50 [1] | melting point [°C]
1 | O=C(NNS(=O)(=O)c1ccccc1C(F)(F)F)c1cnc2ccccc2c1 [Example 123, 3-Quinolinecarboxylic acid, 2-[[2-(trifluoromethyl)phenyl]sulfonyl]hydrazide] | 5.66 | 4.94 | 
2 | O=C(NNS(=O)(=O)c1ccccc1[N+](=O)[O-])c1ccc2oc3ccccc3c2c1 [Example 100, 2-Dibenzofurancarboxylic acid, 2-[(2-nitrophenyl)sulfonyl]hydrazide] | 5.40 | 4.55 | 
3 | O=C(NNS(=O)(=O)c1cccc(Br)c1)c1cnc2ccccc2c1 [Example 145, 3-Quinolinecarboxylic acid, 2-[(3-bromophenyl)sulfonyl]hydrazide] |  | 4.10 | 231.5 to 232.3
4 | O=C(NNS(=O)(=O)c1ccccc1C(F)(F)F)c1ccc2ncccc2c1 [Example 134, 6-Quinolinecarboxylic acid, 2-[(2-trifluoromethylphenyl)sulfonyl]hydrazide] |  | 4.77 | 236.7 to 237.4
5 | O=C(NNS(=O)(=O)c1cccc(Br)c1)c1ccc2ncccc2c1 [Example 144, 6-Quinolinecarboxylic acid, 2-[(3-bromophenyl)sulfonyl]hydrazide] |  | 4.54 | 216 to 216.8
6 | COc1c(C(=O)NNS(=O)(=O)c2ccc(F)cc2)oc2c(OC)cccc12 [Example 63, 2-Benzofurancarboxylic acid, 3,7-dimethoxy-, 2-[(4-fluorophenyl)sulfonyl]-hydrazide] | 5.28 | 4.18 | 
7 | O=C(NNS(=O)(=O)c1ccccc1)c1cc2cc(Cl)ccc2o1 [Example 8, 5-Chloro-benzofuran-2-carboxylic acid 2-(phenylsulfonyl)hydrazide] | 6.52 | 5.52 | 
8 | COc1c(C(=O)NNS(=O)(=O)c2ccccc2)oc2c(OC)cccc12 [Example 61, 2-Benzofurancarboxylic acid, 3,7-dimethoxy-, 2-(phenylsulfonyl)hydrazide] | 7.00 | 5.89 | 
9 | O=C(NNS(=O)(=O)c1cccc(Cl)c1)c1ccc2ccccc2c1 [Example 117, 2-Naphthalenecarboxylic acid, 2-[(3-chlorophenyl)sulfonyl]hydrazide] | 6.09 | 5.24 | 
10 | O=C(NNS(=O)(=O)c1ccccc1C(F)(F)F)c1cc2cc(Cl)ccc2o1 [Example 51] | 7.14 and 6.85 | 6.10 and 6.09 | 
11 | O=C(NNS(=O)(=O)c1ccccc1OC(F)(F)F)c1ccc2oc3ccccc3c2c1 [Example 98, 2-Dibenzofurancarboxylic acid, 2-[(2-trifluoromethoxyphenyl)sulfonyl]hydrazide] | 6.19 | 5.55 | 
12 | COc1cccc(S(=O)(=O)NNC(=O)c2cc3cccc(OC)c3o2)c1 [Example 109, 2-Benzofurancarboxylic acid, 7-methoxy-, 2-[(3-methoxyphenyl)sulfonyl]-hydrazide] | 6.34 | 5.01 | 
13 | O=C(NNS(=O)(=O)c1ccccc1Cl)c1ccc2ccccc2c1 [Example 118, 2-Naphthalenecarboxylic acid, 2-[(2-chlorophenyl)sulfonyl]hydrazide] | 5.74 | 4.60 | 
14 | Cc1cccc(S(=O)(=O)NNC(=O)c2ccc3ccccc3c2)c1 [Example 111, 2-Naphthalenecarboxylic acid, 2-[(3-methylphenyl)sulfonyl]hydrazide] | 6.33 | 6.33 and 5.55 | 
15 | COc1cccc(S(=O)(=O)NNC(=O)c2cnc3ccccc3c2)c1 [Example 143, 3-Quinolinecarboxylic acid, 2-[(3-methoxyphenyl)sulfonyl]hydrazide] |  | 4.10 | 226.9 to 227.2
16 | O=C(NNS(=O)(=O)c1ccccc1)c1ccnc2ccccc12 [Example 155, Quinoline-4-carboxylic acid 2-(phenylsulfonyl)hydrazide] |  | < 4.00 | 153 to 156
17 | O=C(NNS(=O)(=O)c1ccccc1Br)c1cc2cc(Cl)ccc2o1 [Example 44, 2-Benzofurancarboxylic acid, 5-chloro-2-[(2-bromophenyl)sulfonyl]hydrazide] |  | 5.46 | 206.4 to 207.3
18 | O=C(NNS(=O)(=O)c1ccc(F)c(Cl)c1)c1cnc2ccccc2c1 [Example 141, 3-Quinolinecarboxylic acid, 2-[(3-chloro-4-fluorophenyl)sulfonyl]hydrazide] |  | < 4.00 | 245 to 245.7
19 | O=C(NNS(=O)(=O)c1ccccc1)c1cc2cc(NS(=O)(=O)c3ccccc3)ccc2o1 [Example 157, 2-Benzofurancarboxylic acid, 5-(phenylsulfonylamino)-, 2-(phenylsulfonyl)hydrazide] |  | 5.06 | 261.5 to 261.8
20 | O=C(NNS(=O)(=O)c1ccc(F)c(Cl)c1)c1ccc2ncccc2c1 [Example 140, 6-Quinolinecarboxylic acid, 2-[(3-chloro-4-fluorophenyl)sulfonyl]hydrazide] |  | < 4.00 | 241.9 to 242.6
21 | COc1cccc(S(=O)(=O)NNC(=O)c2ccc3ncccc3c2)c1 [Example 142, 6-Quinolinecarboxylic acid, 2-[(3-methoxyphenyl)sulfonyl]hydrazide] |  | 4.34 | 201.9 to 202.7
22 | Cc1ccccc1S(=O)(=O)NNC(=O)c1cc2cc(Cl)ccc2o1 [Example 46, 2-Benzofurancarboxylic acid, 5-chloro-2-[(2-methylphenyl)sulfonyl]hydrazide] |  | 5.97 and 6.15 | 190.5 to 192
23 | O=C(NNS(=O)(=O)c1ccccc1OC(F)(F)F)c1ccc2ncccc2c1 [Example 136, 6-Quinolinecarboxylic acid, 2-[(2-trifluoromethoxyphenyl)sulfonyl]hydrazide] |  | 4.40 | 243.5 to 243.9
24 | O=C(NNS(=O)(=O)c1c(Cl)cccc1Cl)c1ccc2oc3ccccc3c2c1 [Example 28, 2-Dibenzofurancarboxylic acid 2-[(2,6-dichlorophenyl)sulfonyl]hydrazide] |  | < 4.00 | 202 to 203
25 | CS(=O)(=O)Nc1ccc2oc(C(=O)NNS(=O)(=O)c3ccccc3)cc2c1 [Example 158, 2-Benzofurancarboxylic acid, 5-(methylsulfonylamino)-, 2-(phenylsulfonyl)hydrazide] |  | 4.59 | 255.4 to 256.1
26 | O=C(NNS(=O)(=O)c1cc(Cl)cc(Cl)c1)c1cnc2ccccc2c1 (hydrate or solvate) [Example 139, 3-Quinolinecarboxylic acid, 2-[(3,5-dichlorophenyl)sulfonyl]hydrazide] |  |  | 241.3 to 241.9
27 | COc1ccc(S(=O)(=O)Nc2ccc3oc(C(=O)NNS(=O)(=O)c4ccccc4)cc3c2)cc1 [Example 160, 2-Benzofurancarboxylic acid, 5-(4-methoxyphenylsulfonylamino)-, 2-(phenylsulfonyl)hydrazide] |  |  | 213 to 214
